Key:
[1] = biological target: T1, His-tagged human recombinant kinase full-length Akt1 (Homo sapiens, UniProt P31749); assay: Akt1 kinase assay (TR-FRET); format: biochemical; details: 10 μM ATP, 60 min at 22° C., read-out: Akt1, median IC50
T1 construct: His-tagged human recombinant kinase full-length Akt1; His; purchased Invitrogen PV 3599; host or cells: insect cells
Source text: Akt1 inhibitory activity of compounds of the present invention was quantified employing the Akt1 TR-FRET assay as described in the following paragraphs.
(§1) His-tagged human recombinant kinase full-length Akt1 expressed in insect cells was purchased form Invitrogen (part number PV 3599). As substrate for the kinase reaction the biotinylated peptide biotin-Ahx-KKLNRTLSFAEPG (C-terminus in amide form) was used which can be purchased e.g. from the company Biosynthan GmbH (Berlin-Buch, Germany).
(§2) For the assay 50 nl of a 100 fold concentrated solution of the test compound in DMSO was pipetted into a black low volume 384well microtiter plate (Greiner Bio-One, Frickenhausen, Germany), 2 μl of a solution of Akt1 in assay buffer [50 mM TRIS/HCl pH 7.5, 5 mM MgCl2, 1 mM dithiothreitol, 0.02% (v/v) Triton X-100 (Sigma)] were added and the mixture was incubated for 15 min at 22° C. to allow pre-binding of the test compounds to the enzyme before the start of the kinase reaction. Then the kinase reaction was started by the addition of 3 μl of a solution of adenosine-tri-phosphate (ATP, 16.7 μM=>final conc. in the 5 μl assay volume is 10 μM) and substrate (1.67 μM=>final conc. in the 5 μl assay volume is 1 μM) in assay buffer and the resulting mixture was incubated for a reaction time of 60 min at 22° C. The concentration of Akt1 in the assay was adjusted depending of the activity of the enzyme lot and was chosen appropriate to have the assay in the linear range, typical enzyme concentrations were in the range of about 0.05 ng/μl (final conc. in the 5 μl assay volume).
The reaction was stopped by the addition of 5 μl of a solution of HTRF detection reagents (200 nM streptavidine-XL665 [Cisbio] and 1.5 nM anti-phosho-Serine antibody [Millipore, cat. #35-001] and 0.75 nM LANCE Eu-W 1024 labeled anti-mouse IgG antibody [Perkin Elmer]) in an aqueous EDTA-solution (100 mM EDTA, 0.1% (w/v) bovine serum albumin in 50 mM HEPES/NaOH pH 7.5). The resulting mixture was incubated 1 h at 22° C. to allow the binding of the biotinylated phosphorylated peptide to the streptavidine-XL665 and the antibodies. Subsequently the amount of phosphorylated substrate was evaluated by measurement of the resonance energy transfer from the anti-mouse-IgG-Eu-Chelate to the streptavidine-XL665. Therefore, the fluorescence emissions at 620 nm and 665 nm after excitation at 350 nm was measured in a HTRF reader, e.g. a Rubystar (BMG Labtechnologies, Offenburg, Germany) or a Viewlux (Perkin-Elmer). The ratio of the emissions at 665 nm and at […] was taken as the measure for the amount of phosphorylated substrate. The data were normalised (enzyme reaction without inhibitor=0% inhibition, all other assay components but no enzyme=100% inhibition).

[2] = biological target: T2, His-tagged human recombinant kinase full-length Akt2 (Homo sapiens, UniProt P31751); assay: Akt2 kinase assay (TR-FRET); format: biochemical; details: 10 μM ATP, 60 min at 22° C., read-out: Akt2, median IC50
T2 construct: His-tagged human recombinant kinase full-length Akt2; His; purchased Invitrogen PV 3975; host or cells: insect cells
Source text: Akt2 inhibitory activity of compounds of the present invention was quantified employing the Akt2 TR-FRET assay as described in the following paragraphs.
as §1, with “Akt2” for “Akt1”, “cells and activated by PDK1” for “cells”, “3975).” for “3599).”
as §2, with “Akt2” for “Akt1”, “0.2” for “0.05”
The reaction was stopped by the addition of 5 μl of a solution of HTRF detection reagents (200 nM streptavidine-XL665 [Cisbio] and 1.5 nM anti-phosho-Serine antibody [Millipore, cat. #35-001] and 0.75 nM LANCE Eu-W 1024 labeled anti-mouse IgG antibody [Perkin Elmer]) in an aqueous EDTA-solution (100 mM EDTA, 0.1% (w/v) bovine serum albumin in 50 mM HEPES/NaOH pH 7.5).
The resulting mixture was incubated 1 h at 22° C. to allow the binding of the biotinylated phosphorylated peptide to the streptavidine-XL665 and the antibodies.
Subsequently the amount of phosphorylated substrate was evaluated by measurement of the resonance energy transfer from the anti-mouse-IgG-Eu-Chelate to the streptavidine-XL665. Therefore, the fluorescence emissions at 620 nm and 665 nm after excitation at 350 nm was measured in a TR-FRET reader, e.g. a Rubystar (BMG Labtechnologies, Offenburg, Germany) or a Viewlux (Perkin-Elmer). The ratio of the emissions at 665 nm and at […] was taken as the measure for the amount of phosphorylated substrate. The data were normalised (enzyme reaction without inhibitor=0% inhibition, all other assay components but no enzyme=100% inhibition).

[3] = tested on: KPL-4 breast cancer cell line; assay: Tumor cell proliferation assay (CellTiter-Glo); format: cell-based; details: KPL4, 72 h drug exposure
Experimental: Compounds were tested in a cell-based assay that measures the capacity of the compounds to inhibit tumour cell proliferation following a 72 h drug exposure. Cell viability is determined using CellTiter-Glow® (CTG, Promega, cat #G7571/2/3). The CellTiter-Glo® Luminescent Cell Viability Assay is a homogeneous method to determine the number of viable cells in culture. Detection is based on using the luciferase reaction to measure the amount of ATP from viable cells. The amount of ATP in cells correlates with cell viability. Within minutes after a loss of membrane integrity, cells lose the ability to synthesize ATP, and endogenous ATPases destroy any remaining ATP; thus the levels of ATP fall precipitously.
Cells were plated at 3000-5000 cells/well (depending on the cell lines) in 90 μL growth medium on MTPs (Corning; #3603, black plate, clear flat bottom). For each cell line assayed, cells were plated onto a separate plate for determination of […] at t=0 hour and t=72 hour time points. Following overnight incubation at 37° C., chemiluminescence values for the t=0 samples were determined after adding 10 μl medium and 100 μl CTG solution according to manufacture protocol. Plates for the t=72 hour time points were treated with compounds diluted into growth medium at ten times final concentration added in 10 μL to the cell culture plate. Cells were then incubated for 72 hours at 37° C. Chemiluminescence values for the t=72 hour samples were determined. […] Experiments were controlled using a reference compound as standard.

T2 sequence (P31751 whole entry): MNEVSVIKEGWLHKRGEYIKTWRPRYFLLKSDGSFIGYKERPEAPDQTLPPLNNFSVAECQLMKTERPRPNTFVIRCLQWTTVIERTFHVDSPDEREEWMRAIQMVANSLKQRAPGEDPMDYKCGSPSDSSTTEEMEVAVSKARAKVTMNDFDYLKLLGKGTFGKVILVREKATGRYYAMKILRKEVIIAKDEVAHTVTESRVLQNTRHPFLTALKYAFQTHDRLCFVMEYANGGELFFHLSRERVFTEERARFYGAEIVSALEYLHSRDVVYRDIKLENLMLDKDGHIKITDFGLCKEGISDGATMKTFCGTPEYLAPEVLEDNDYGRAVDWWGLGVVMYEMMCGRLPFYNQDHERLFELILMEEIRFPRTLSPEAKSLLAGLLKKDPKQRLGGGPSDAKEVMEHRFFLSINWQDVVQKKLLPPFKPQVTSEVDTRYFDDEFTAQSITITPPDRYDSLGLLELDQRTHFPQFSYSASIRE
T1 sequence (P31749 whole entry): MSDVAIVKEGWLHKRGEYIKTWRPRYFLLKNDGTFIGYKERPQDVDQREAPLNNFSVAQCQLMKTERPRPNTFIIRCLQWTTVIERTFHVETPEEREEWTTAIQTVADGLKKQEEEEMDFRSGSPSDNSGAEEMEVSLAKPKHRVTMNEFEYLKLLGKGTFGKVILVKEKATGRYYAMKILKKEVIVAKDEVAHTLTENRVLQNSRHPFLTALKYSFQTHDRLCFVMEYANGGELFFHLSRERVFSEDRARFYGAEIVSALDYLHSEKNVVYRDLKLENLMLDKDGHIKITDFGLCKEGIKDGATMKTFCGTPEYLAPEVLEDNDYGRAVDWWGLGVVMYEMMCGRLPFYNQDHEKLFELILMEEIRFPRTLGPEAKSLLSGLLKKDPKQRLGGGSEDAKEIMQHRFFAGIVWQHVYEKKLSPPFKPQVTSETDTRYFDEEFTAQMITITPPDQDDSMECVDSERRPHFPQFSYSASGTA

SMILES: NC1(c2ccc(-c3nc4nc(C5CC5)nn4cc3-c3ccccc3)cc2)CCC1 [Example 1-4, 1-[4-(2-cyclopropyl-6-phenyl-[1,2,4]triazolo[1,5-a]pyrimidin-5-yl)-phenyl]-cyclobutylamine]
- IC50 [1]: 0.755 µM
- IC50 [2]: 0.408 µM
- IC50 [3]: 1.41 µM

SMILES: Cc1cn2c(NC3CC3)c(-c3ccccc3)c(-c3ccc(C4(N)CCC4)cc3)nc2n1 [Example 2-5, {7-[4-(1-Amino-cyclobutyl)-phenyl]-2-methyl-6-phenyl-imidazo[1,2-a]pyrimidin-5-yl)-cyclopropylamine]
- IC50 [2]: 0.54 µM
- IC50 [3]: 3.62 µM

SMILES: CC(C)(C)Nc1c(-c2ccccc2)c(-c2ccc(C3(N)CCC3)cc2)nc2nc(-c3ccccn3)nn12 [Example 3-0, {5-[4-(1-Aminocyclobutyl)-phenyl]-6-phenyl-2-pyridine-2-yl-[1,2,4]triazolo[1,5-a]pyrimidin-7-yl}-tert.-butylamine]
- IC50 [1]: 1.13 µM
- IC50 [2]: 0.061 µM
- IC50 [3]: 1.74 µM

SMILES: COCCNc1nc2nc(-c3ccc(C4(N)CCC4)cc3)c(-c3ccccc3)cn2n1 [Example 5-0, {5-[4-(1-Amino-cyclobutyl)-phenyl]-6-phenyl-[1,2,4]triazolo[1,5-a]pyrimidin-2-yl}-(2-methoxy-ethyl)-amine]
- IC50 [1]: 1.83 µM
- IC50 [2]: 0.877 µM

SMILES: CCNc1nc2nc(-c3ccc(C4(N)CCC4)cc3)c(-c3ccccc3)cn2n1 [Example 5-1, {5-[4-(1-amino-cyclobutyl)-phenyl]-6-phenyl-[1,2,4]triazolo[1,5-a]pyrimidin-2-yl}-ethyl-amine]
- IC50 [1]: 0.958 µM
- IC50 [2]: 0.502 µM

SMILES: CNc1nc2nc(-c3ccc(C4(N)CCC4)cc3)c(-c3ccccc3)cn2n1 [Example 5-3, {5-[4-(1-amino-cyclobutyl)-phenyl]-6-phenyl-[1,2,4]triazolo[1,5-a]pyrimidin-2-yl}-methyl-amine]
- IC50 [1]: 0.527 µM
- IC50 [2]: 0.381 µM
- IC50 [3]: 2.17 µM

SMILES: NC1(c2ccc(-c3nc4nc(NCc5ccncc5)nn4cc3-c3ccccc3)cc2)CCC1 [Example 5-6, {5-[4-(1-amino-cyclobutyl)-phenyl]-6-phenyl-[1,2,4]triazolo[1,5-a]pyrimidin-2-yl}-pyridin-4-ylmethyl-amine]
- IC50 [1]: 5.65 µM
- IC50 [2]: 2.55 µM

SMILES: Cc1nc2nc(-c3ccc(C4(N)CCC4)cc3)c(-c3ccccc3)c(NC(C)C)n2n1 [Example 5-7, {5-[4-(1-amino-cyclobutyl)-phenyl]-2-methyl-6-phenyl-[1,2,4]triazolo[1,5-a]pyrimidin-7-yl}-isopropyl-amine]
- IC50 [1]: 0.672 µM
- IC50 [2]: 0.549 µM

SMILES: Cc1nc2nc(-c3ccc(C4(N)CCC4)cc3)c(-c3ccccc3)c(NCC3CC3)n2n1 [Example 5-9, {5-[4-(1-amino-cyclobutyl)-phenyl]-2-methyl-6-phenyl-[1,2,4]triazolo[1,5-a]pyrimidin-7-yl}-cyclopropylmethyl-amine]
- IC50 [1]: 0.854 µM
- IC50 [2]: 0.541 µM

SMILES: CNc1c(-c2ccccc2)c(-c2ccc(C3(N)CCC3)cc2)nc2nc(C3CC3)nn12 [Example 5-10, {5-[4-(1-amino-cyclobutyl)-phenyl]-2-cyclopropyl-6-phenyl-[1,2,4]triazolo[1,5-a]pyrimidin-7-yl}-methyl-amine]
- IC50 [1]: 0.93 µM
- IC50 [2]: 0.982 µM

SMILES: CCNc1c(-c2ccccc2)c(-c2ccc(C3(N)CCC3)cc2)nc2nc(C)nn12 [Example 5-11, {5-[4-(1-amino-cyclobutyl)-phenyl]-2-methyl-6-phenyl-[1,2,4]triazolo[1,5-a]pyrimidin-7-yl}-ethyl-amine]
- IC50 [1]: 1.73 µM
- IC50 [2]: 1.12 µM

SMILES: Cc1nc2nc(-c3ccc(C4(N)CCC4)cc3)c(-c3ccccc3)c(NC3CC3)n2n1 [Example 5-12, {5-[4-(1-amino-cyclobutyl)-phenyl]-2-methyl-6-phenyl-[1,2,4]triazolo[1,5-a]pyrimidin-7-yl}-cyclopropyl-amine]
- IC50 [1]: 1.85 µM
- IC50 [2]: 0.904 µM

SMILES: CNc1c(-c2ccccc2)c(-c2ccc(C3(N)CCC3)cc2)nc2nc(C)nn12 [Example 5-13, {5-[4-(1-amino-cyclobutyl)-phenyl]-2-methyl-6-phenyl-[1,2,4]triazolo[1,5-a]pyrimidin-7-yl}-methyl-amine]
- IC50 [1]: 2.24 µM
- IC50 [2]: 2.24 µM

SMILES: COCCNc1c(-c2ccccc2)c(-c2ccc(C3(N)CCC3)cc2)nc2nc(C)nn12 [Example 5-14, {5-[4-(1-amino-cyclobutyl)-phenyl]-2-methyl-6-phenyl-[1,2,4]triazolo[1,5-a]pyrimidin-7-yl}-(2-methoxy-ethyl)-amine]
- IC50 [1]: 3.25 µM
- IC50 [2]: 2.32 µM

SMILES: NC1(c2ccc(-c3nc4nc(C5CC5)nn4c(N[C@H]4CC[C@H](O)CC4)c3-c3ccccc3)cc2)CCC1 [Example 5-15, 4-{5-[4-(1-amino-cyclobutyl)-phenyl]-2-cyclopropyl-6-phenyl-[1,2,4]triazolo[1,5-a]pyrimidin-7-ylamino}-cyclohexanol]
- IC50 [1]: 11.6 µM
- IC50 [2]: 0.936 µM

— US20130184273A1, “BICYCLIC PYRIMIDINES” (Bayer Intellectual Property GmbH, priority 2010, published 2013)
